Source: ChEMBL document CHEMBL1201862, “PubChem BioAssay data set” (2004)
Activity calls are given as the source filed them.

Assays:
[1] = target: T1, Short transient receptor potential channel 4 (Mus musculus, UniProt Q9QUQ5); assay: mouse TRPC4 channel activators, dose response, cell-based, HEK293 TRPC4/mu-opioid, Fluo-4 calcium (AID 434937); assay type: functional
T1 sequence (Q9QUQ5 whole entry): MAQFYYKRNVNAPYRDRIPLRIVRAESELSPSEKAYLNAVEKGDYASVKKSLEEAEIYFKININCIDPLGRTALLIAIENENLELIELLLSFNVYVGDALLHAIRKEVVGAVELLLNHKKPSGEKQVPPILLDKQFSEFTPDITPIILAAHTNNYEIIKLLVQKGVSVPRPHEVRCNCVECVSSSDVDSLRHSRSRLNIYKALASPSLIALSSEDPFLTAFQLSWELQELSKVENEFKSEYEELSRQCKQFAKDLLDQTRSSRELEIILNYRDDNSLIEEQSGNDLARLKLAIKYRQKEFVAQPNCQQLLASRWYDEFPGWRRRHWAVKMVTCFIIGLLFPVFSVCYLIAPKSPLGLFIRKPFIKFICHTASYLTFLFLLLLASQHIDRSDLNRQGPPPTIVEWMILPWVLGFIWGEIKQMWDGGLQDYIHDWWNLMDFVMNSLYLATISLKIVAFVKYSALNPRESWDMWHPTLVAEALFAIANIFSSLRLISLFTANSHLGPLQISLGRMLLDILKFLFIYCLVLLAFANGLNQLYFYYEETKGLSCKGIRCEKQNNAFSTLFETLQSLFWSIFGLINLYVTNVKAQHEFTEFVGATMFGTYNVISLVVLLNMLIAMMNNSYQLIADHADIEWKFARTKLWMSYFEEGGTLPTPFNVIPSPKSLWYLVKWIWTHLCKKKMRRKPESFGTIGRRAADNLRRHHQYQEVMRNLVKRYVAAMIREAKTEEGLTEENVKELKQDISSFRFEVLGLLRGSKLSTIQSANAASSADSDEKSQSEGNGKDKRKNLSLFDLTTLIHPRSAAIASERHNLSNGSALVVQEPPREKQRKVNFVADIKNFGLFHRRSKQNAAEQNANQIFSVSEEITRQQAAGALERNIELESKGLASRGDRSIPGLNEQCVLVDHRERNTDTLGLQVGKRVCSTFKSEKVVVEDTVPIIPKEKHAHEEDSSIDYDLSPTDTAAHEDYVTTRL

[2] = A cytotoxicity screen of small molecule inhibitors of the PhoP region in Salmonella typhi identified in the primary screen. [Related pubchem assays: 1850, 1864, 1985 ]; assay type: functional
[3] = test system: HT-1080; assay: cytotoxicity in HT1080 fibrosarcoma cells, cell-based, fluorescence readout (AID 620); assay type: functional; conditions: Homo sapiens
[4] = target: Luciferin 4-monooxygenase (Photinus pyralis, UniProt P08659); assay: Counter Screen for Luciferase-based Assay Positives. [Related pubchem assays: 620, 618, 411 ]
[5] = target: Inward rectifier potassium channel 2 (Mus musculus, UniProt P35561); assay: Manual electrophysiological patch clamp assay for SAR compounds that inhibit/block inward-rectifying potassium ion channel Kir2.1. [Related pubchem assays: 1843 (Summary assay for Kir2.1 inhibitor assays.), 1672 (Primary HTS of 305616 compounds where 2592 were identified as active.)]; assay type: functional
[6] = inhibitors of Bluetongue virus cytopathic effect, confirmation, arbovirus, BSR cells (AID 1250); assay type: functional;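 further: protection from viral cytopathic effect measured as cell viability by ATP luminescence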
[7] = cells; assay type: functional
[8] = target: Cytochrome P450 2C9 (Homo sapiens, UniProt P11712)
[9] = target: Cytochrome P450 2C19 (Homo sapiens, UniProt P33261); assay: Cytochrome panel assay with activity outcomes. Panel member name: p450-cyp2c19 Compounds with AC50 equal or less than 10 uM are considered active; assay type: functional; conditions: read-out: AC50
[10] = target: T2, Neuropeptide Y receptor type 1 (Homo sapiens, UniProt P25929); assay: Fluorescence-based counterscreen for agonists of NPY-Y2: cell-based high-throughput dose response assay for agonists of NPY-Y1.; assay type: functional
T2 sequence (P25929 whole entry): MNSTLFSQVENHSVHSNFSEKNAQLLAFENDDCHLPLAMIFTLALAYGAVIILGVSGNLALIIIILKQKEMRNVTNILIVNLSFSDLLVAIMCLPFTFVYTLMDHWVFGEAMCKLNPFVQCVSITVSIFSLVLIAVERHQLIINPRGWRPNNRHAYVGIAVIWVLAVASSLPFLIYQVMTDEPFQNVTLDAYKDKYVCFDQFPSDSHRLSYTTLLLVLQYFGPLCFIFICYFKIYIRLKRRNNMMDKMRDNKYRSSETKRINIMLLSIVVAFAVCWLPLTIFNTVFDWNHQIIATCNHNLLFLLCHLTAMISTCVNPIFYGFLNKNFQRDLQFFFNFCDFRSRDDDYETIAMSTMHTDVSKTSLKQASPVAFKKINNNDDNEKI

[11] = target: T3, Neuropeptide Y receptor type 2 (Homo sapiens, UniProt P49146); assay: Fluorescence-based cell-based high-throughput dose response assay for agonists of NPY-Y2. [Related pubchem assays: 1703 (Screening assay (CNGC inhibitors).), 1359 (Screening assay (NPY-Y2 potentiators or agonists).), 1304 (Screening assay (NPY-Y1 potentiators or agonists).), 1710 (Screening assay (NPY-Y2 agonists).), 1791 (Summary AID.)]; assay type: functional
T3 sequence (P49146 whole entry): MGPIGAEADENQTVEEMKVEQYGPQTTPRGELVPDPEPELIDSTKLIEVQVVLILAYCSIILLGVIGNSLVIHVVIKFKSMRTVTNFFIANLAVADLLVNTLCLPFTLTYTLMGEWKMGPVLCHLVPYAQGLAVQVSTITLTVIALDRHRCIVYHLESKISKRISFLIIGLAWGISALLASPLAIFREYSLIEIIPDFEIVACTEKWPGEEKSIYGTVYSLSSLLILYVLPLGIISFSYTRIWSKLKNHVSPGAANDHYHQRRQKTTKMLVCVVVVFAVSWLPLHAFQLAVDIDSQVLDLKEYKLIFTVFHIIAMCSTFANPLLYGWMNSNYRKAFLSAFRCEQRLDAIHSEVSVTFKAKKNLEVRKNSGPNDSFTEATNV

[12] = test system: HEK293; assay: Fluorescence-based counterscreen for potentiators or agonists of NPY-Y2: cell-based high-throughput dose response assay to identify inhibitors of cyclic nucleotide gated ion channel (CNGC) activity. In this assay, the parental HEK293 cell line transfected with a cyclic-nucleotide gated ion channel (CNGC)-based cAMP sensor is used to measure inhibition of isoproterenol-induced CNGC activity by test compound.; assay type: functional; conditions: Homo sapiens;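 further: stimulus is 1 µM isoproterenol at EC100 plus PDE inhibitor Ro 20-1724 at 25 µM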

Cytochrome P450 2C19, sequence (P33261 whole entry): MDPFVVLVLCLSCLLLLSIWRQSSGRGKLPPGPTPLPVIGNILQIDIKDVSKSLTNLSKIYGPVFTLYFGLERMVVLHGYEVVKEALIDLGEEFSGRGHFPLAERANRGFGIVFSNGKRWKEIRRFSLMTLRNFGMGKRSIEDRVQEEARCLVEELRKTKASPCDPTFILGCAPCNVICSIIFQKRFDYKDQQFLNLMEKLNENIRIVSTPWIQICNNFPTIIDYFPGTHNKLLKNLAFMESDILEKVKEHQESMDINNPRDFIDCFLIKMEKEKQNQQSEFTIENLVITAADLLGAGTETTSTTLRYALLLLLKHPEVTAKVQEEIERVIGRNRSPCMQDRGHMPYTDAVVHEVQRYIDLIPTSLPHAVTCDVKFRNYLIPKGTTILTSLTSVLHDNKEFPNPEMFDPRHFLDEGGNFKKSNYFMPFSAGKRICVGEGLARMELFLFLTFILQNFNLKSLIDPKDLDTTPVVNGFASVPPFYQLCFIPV
Cytochrome P450 2C9, sequence (P11712 whole entry): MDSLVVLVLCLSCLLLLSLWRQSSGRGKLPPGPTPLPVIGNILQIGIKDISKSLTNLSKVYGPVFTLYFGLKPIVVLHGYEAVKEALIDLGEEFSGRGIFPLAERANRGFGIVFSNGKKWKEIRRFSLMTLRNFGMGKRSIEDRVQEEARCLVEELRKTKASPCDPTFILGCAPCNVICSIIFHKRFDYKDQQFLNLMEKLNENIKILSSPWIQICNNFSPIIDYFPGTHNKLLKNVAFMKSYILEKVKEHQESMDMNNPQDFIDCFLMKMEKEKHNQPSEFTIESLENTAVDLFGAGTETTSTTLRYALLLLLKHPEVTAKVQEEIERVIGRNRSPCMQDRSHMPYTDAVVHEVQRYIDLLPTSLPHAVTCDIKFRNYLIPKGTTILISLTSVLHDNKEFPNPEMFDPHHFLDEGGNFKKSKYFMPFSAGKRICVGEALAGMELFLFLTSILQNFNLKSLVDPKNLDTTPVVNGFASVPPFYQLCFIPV
Inward rectifier potassium channel 2, sequence (P35561 whole entry): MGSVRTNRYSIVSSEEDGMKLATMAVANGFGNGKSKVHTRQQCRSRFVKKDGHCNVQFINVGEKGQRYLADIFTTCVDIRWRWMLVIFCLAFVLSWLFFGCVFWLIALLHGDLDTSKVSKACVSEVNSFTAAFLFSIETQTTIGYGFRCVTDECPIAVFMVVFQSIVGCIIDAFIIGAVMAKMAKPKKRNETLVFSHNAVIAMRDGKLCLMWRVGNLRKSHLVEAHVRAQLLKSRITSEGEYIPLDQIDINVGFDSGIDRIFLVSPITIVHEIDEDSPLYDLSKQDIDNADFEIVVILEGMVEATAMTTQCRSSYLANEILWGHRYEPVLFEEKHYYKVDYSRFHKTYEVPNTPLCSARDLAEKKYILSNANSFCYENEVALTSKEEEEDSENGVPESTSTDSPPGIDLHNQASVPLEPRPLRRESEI
Luciferin 4-monooxygenase, sequence (P08659 whole entry): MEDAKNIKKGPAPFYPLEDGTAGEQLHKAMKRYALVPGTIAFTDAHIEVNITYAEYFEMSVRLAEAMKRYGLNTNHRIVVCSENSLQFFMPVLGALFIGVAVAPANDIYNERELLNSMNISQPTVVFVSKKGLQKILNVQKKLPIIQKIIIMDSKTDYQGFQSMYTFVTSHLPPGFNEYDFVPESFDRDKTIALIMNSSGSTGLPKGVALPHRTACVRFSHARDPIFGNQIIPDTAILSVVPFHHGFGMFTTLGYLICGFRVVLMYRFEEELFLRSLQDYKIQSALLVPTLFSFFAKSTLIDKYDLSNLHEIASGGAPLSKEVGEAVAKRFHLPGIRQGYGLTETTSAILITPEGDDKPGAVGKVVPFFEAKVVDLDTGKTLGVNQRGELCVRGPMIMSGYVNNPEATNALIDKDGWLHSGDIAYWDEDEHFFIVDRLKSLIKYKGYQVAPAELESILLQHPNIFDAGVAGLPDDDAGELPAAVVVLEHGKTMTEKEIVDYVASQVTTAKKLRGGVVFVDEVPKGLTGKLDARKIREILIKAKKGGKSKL

In the case of `CN(CCOc1ccc(Cl)cc1)CC(O)c1ccccc1` (centres undefined), the EC50 [1] is reported as 1.88 µM (active) and the EC50 [2] is reported as > 50 µM (active).

In the case of `COCCn1c(C)cc(C2=NN=C(Nc3ccccc3)SC2)c1C`, the EC50 [3] is reported as > 50 µM (not active) and the EC50 [4] is reported as 2.49 µM (active).

In the case of `COc1ccc(CNCc2ccc(OC)cc2)cc1`, the IC50 [5] is reported as 1.88 µM (active).

For `COc1ccc(-c2csc(Nc3ccc(C)cn3)n2)cc1OC`, the IC50 [6] was 35.9 µM (active).

For `O=C(Nc1nc(-c2ccco2)cs1)c1ccccc1`, the IC50 [6] was 30.7 µM (active).

In the case of `CC(=O)/C=C1\Nc2ccccc2OC1=O`, the IC50 [7] is reported as 5.75 µM (active), the AC50 [8] is reported as 2.24 µM (inconclusive) and the AC50 [9] is reported as 7.94 µM (inconclusive). The EC50 [2] was > 50 µM (active).

For `OC1(c2ccc(OC(F)F)cc2)CS/C(=N\c2cccnc2)N1Cc1ccco1` (centres undefined), the EC50 [10] was > 35.4 µM (not active), the EC50 [11] was > 35.4 µM (not active) and the EC50 [12] was > 35.4 µM (not active).
